Values quoted from earlier work as cited in patent US20040077591A1, “Histone deacetylase inhibitors for the treatment of multiple sclerosis, amyotrophic lateral sclerosis and Alzheimer's Disease” (The Brigham and Women's Hospital, Inc., priority 2002, published 2004).

Key:
[1] = tested on: SMA-like mice; conditions: cited from earlier work
[2] = tested on: SMA lymphoid cell lines; conditions: cited from earlier work

CCCC(=O)[O-].[Na+] [sodium butyrate]
expression of SMN protein in spinal cord motor neurons ([1]; SMA-like mice): increased expression of SMN protein | symptoms ([1]; SMA-like mice): improved symptoms | birth rate of severe types of SMA-like mice ([1]; heterozygous knock-out transgenic SMA-like mice bred): decreased the birth rate | amount of exon 7-containing survival motor neuron (SMN) protein [2]: effective at increasing
